Assay results from patent US20210045385A1, “PYRIDAZINONE-SUBSTITUTED KETOXIMES AS HERBICIDES” (FMC Corporation, priority 2018, published 2021).

Legend:
Type in all cases: in vivo
[1] = test system: Italian ryegrass (Lolium multiflorum); experiment: Test A preemergence, visual plant response rating; conditions: for Ryegrass, Italian plant response rating (0 to 100 scale): approx. 10 days
How it was run: (§1)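 Greenhouse pot test in loam–sand soil mix: compound in a surfactant-containing non-phytotoxic solvent applied preemergence (directed soil spray) or postemergence (one- to two-leaf plants, 2–10 cm). Injury scored visually after ~10 days, 0–100.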

[2] = test system: barnyardgrass (Echinochloa crus-galli); experiment: Test A preemergence, visual plant response rating; conditions: for Barnyardgrass plant response rating (0 to 100 scale): approx. 10 days
How it was run: as §1

[3] = test system: foxtail, green (green foxtail, Setaria viridis); experiment: Test A preemergence, visual plant response rating; conditions: for Foxtail, Green plant response rating (0 to 100 scale): approx. 10 days
How it was run: as §1

kochia (Kochia scoparia) [4] = experiment: Test A preemergence, visual plant response rating; conditions: for Kochia plant response rating (0 to 100 scale): approx. 10 days
How it was run: as §1

[5] = test system: pigweed (Amaranthus retroflexus); experiment: Test A preemergence, visual plant response rating; conditions: for Pigweed plant response rating (0 to 100 scale): approx. 10 days
How it was run: as §1

[6] = test system: ragweed (common ragweed, Ambrosia elatior); experiment: Test A preemergence, visual plant response rating; conditions: for Ragweed plant response rating (0 to 100 scale): approx. 10 days
How it was run: as §1

[7] = test system: Italian ryegrass (Lolium multiflorum); experiment: Test A postemergence, visual plant response rating; conditions: for Ryegrass, Italian plant response rating (0 to 100 scale): 500 g ai/ha, postemergence, 0 is no effect, 100 is complete control; for Ryegrass, Italian plant response rating: Postemergence, 125 g ai/ha, 0 to 100 scale (0 no effect, 100 complete control)
How it was run: as §1

[8] = test system: barnyardgrass (Echinochloa crus-galli); experiment: Test A postemergence, visual plant response rating; conditions: for Barnyardgrass plant response rating (0 to 100 scale): 500 g ai/ha, postemergence, 0 is no effect, 100 is complete control; for Barnyardgrass plant response rating: Postemergence, 125 g ai/ha, 0 to 100 scale (0 no effect, 100 complete control)
How it was run: as §1

[9] = test system: blackgrass (Alopecurus myosuroides); experiment: Test A postemergence, visual plant response rating; conditions: for Blackgrass plant response rating (0 to 100 scale): 500 g ai/ha, postemergence, 0 is no effect, 100 is complete control; for Blackgrass plant response rating: Postemergence, 125 g ai/ha, 0 to 100 scale (0 no effect, 100 complete control)
How it was run: as §1

corn (Zea mays) = experiment: Test A postemergence, visual plant response rating; conditions: for Corn plant response rating (0 to 100 scale): 500 g ai/ha, postemergence, 0 is no effect, 100 is complete control; for Corn plant response rating: Postemergence, 125 g ai/ha, 0 to 100 scale (0 no effect, 100 complete control)
How it was run: as §1

[10] = test system: foxtail, green (green foxtail, Setaria viridis); experiment: Test A postemergence, visual plant response rating; conditions: for Foxtail, Green plant response rating (0 to 100 scale): 500 g ai/ha, postemergence, 0 is no effect, 100 is complete control; for Foxtail, Green plant response rating: Postemergence, 125 g ai/ha, 0 to 100 scale (0 no effect, 100 complete control)
How it was run: as §1

[11] = test system: galium (catchweed bedstraw, Galium aparine); experiment: Test A postemergence, visual plant response rating; conditions: for Galium plant response rating (0 to 100 scale): 500 g ai/ha, postemergence, 0 is no effect, 100 is complete control; for Galium plant response rating: Postemergence, 125 g ai/ha, 0 to 100 scale (0 no effect, 100 complete control)
How it was run: as §1

kochia (Kochia scoparia) [12] = experiment: Test A postemergence, visual plant response rating; conditions: for Kochia plant response rating (0 to 100 scale): 500 g ai/ha, postemergence, 0 is no effect, 100 is complete control; for Kochia plant response rating: Postemergence, 125 g ai/ha, 0 to 100 scale (0 no effect, 100 complete control)
How it was run: as §1

[13] = test system: pigweed (Amaranthus retroflexus); experiment: Test A postemergence, visual plant response rating; conditions: for Pigweed plant response rating (0 to 100 scale): 500 g ai/ha, postemergence, 0 is no effect, 100 is complete control; for Pigweed plant response rating: Postemergence, 125 g ai/ha, 0 to 100 scale (0 no effect, 100 complete control)
How it was run: as §1

[14] = test system: ragweed (common ragweed, Ambrosia elatior); experiment: Test A postemergence, visual plant response rating; conditions: for Ragweed plant response rating (0 to 100 scale): 500 g ai/ha, postemergence, 0 is no effect, 100 is complete control; for Ragweed plant response rating: Postemergence, 125 g ai/ha, 0 to 100 scale (0 no effect, 100 complete control)
How it was run: as §1

[15] = test system: wheat (Triticum aestivum); experiment: Test A postemergence, visual plant response rating; conditions: for Wheat plant response rating (0 to 100 scale): 500 g ai/ha, postemergence, 0 is no effect, 100 is complete control; for Wheat plant response rating: Postemergence, 125 g ai/ha, 0 to 100 scale (0 no effect, 100 complete control)
How it was run: as §1

[16] = test system: barnyardgrass (Echinochloa crus-galli); experiment: Test B flooded paddy test, visual plant response rating; conditions: 250 g ai/ha, Flood, applied to paddy water, 2-leaf stage, evaluated after 13 to 15 days
How it was run: (§2)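 Compounds added straight into paddy water of pots flooded to 3 cm, with 2-leaf-stage plants of the four species; water level held throughout.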

[17] = test system: ducksalad (Heteranhera limosa); experiment: as above; conditions: 250 g ai/ha, Flood, applied to paddy water, 2-leaf stage, evaluated after 13 to 15 days
How it was run: as §2

rice (Oryza sativa) = experiment: as above; conditions: 250 g ai/ha, Flood, applied to paddy water, 2-leaf stage, evaluated after 13 to 15 days
How it was run: as §2

[18] = test system: sedge, umbrella (small-flower umbrella sedge, Cyperus difformis); experiment: as above; conditions: 250 g ai/ha, Flood, applied to paddy water, 2-leaf stage, evaluated after 13 to 15 days
How it was run: as §2

[19] = 125 g ai/ha, preemergence, 0 to 100 scale, 0 no effect, 100 complete control

Compound | Ryegrass, Italian plant response rating (0 to 100 scale) ([1]; 500 g ai/ha Preemergence) | Barnyardgrass plant response rating (0 to 100 scale) ([2]; 500 g ai/ha Preemergence) | Foxtail, Green plant response rating (0 to 100 scale) ([3]; 500 g ai/ha Preemergence) | Kochia plant response rating (0 to 100 scale) (kochia (Kochia scoparia) [4]; 500 g ai/ha Preemergence) | Pigweed plant response rating (0 to 100 scale) ([5]; 500 g ai/ha Preemergence) | Ragweed plant response rating (0 to 100 scale) ([6]; 500 g ai/ha Preemergence) | Ryegrass, Italian plant response rating (0 to 100 scale) [7] | Ryegrass, Italian plant response rating [7] | Barnyardgrass plant response rating (0 to 100 scale) [8] | Barnyardgrass plant response rating [8] | Blackgrass plant response rating (0 to 100 scale) [9] | Blackgrass plant response rating [9] | Corn plant response rating (0 to 100 scale) (corn (Zea mays)) | Corn plant response rating (corn (Zea mays)) | Foxtail, Green plant response rating (0 to 100 scale) [10] | Foxtail, Green plant response rating [10] | Galium plant response rating (0 to 100 scale) [11] | Galium plant response rating [11] | Kochia plant response rating (0 to 100 scale) (kochia (Kochia scoparia) [12]) | Kochia plant response rating (kochia (Kochia scoparia) [12]) | other results
CO/N=C(/c1cccc(C)c1)c1c(O)c(C2CC2)nn(C)c1=O [Compound 28] | 0 | 0 | 30 | 0 | 10 | 10 | 10 | 0 | 30 | 0 | 40 | 0 | 0 | 0 | 10 | 0 | 60 | 20 | 0 | 0 | Ryegrass, Italian plant response rating (0 to 100 scale) ([1]; 125 g ai/ha Preemergence): 0; Barnyardgrass plant response rating (0 to 100 scale) ([2]; 125 g ai/ha Preemergence): 0; Foxtail, Green plant response rating (0 to 100 scale) ([3]; 125 g ai/ha Preemergence): 0; Kochia plant response rating (0 to 100 scale) (kochia (Kochia scoparia) [4]; 125 g ai/ha Preemergence): 0; Pigweed plant response rating (0 to 100 scale) ([5]; 125 g ai/ha Preemergence): 0; Ragweed plant response rating (0 to 100 scale) ([6]; 125 g ai/ha Preemergence): 0; Pigweed plant response rating (0 to 100 scale) [13]: 40; Pigweed plant response rating [13]: 30; Ragweed plant response rating (0 to 100 scale) [14]: 40; Ragweed plant response rating [14]: 0; Wheat plant response rating (0 to 100 scale) [15]: 0; Wheat plant response rating [15]: 0; Plant response rating, Barnyardgrass (0 to 100 scale, 0 is no effect, 100 is complete control) [16]: 0; Plant response rating, Ducksalad (0 to 100 scale, 0 is no effect, 100 is complete control) [17]: 0; Plant response rating, Rice (0 to 100 scale, 0 is no effect, 100 is complete control) (rice (Oryza sativa)): 0; Plant response rating, Sedge, Umbrella (0 to 100 scale, 0 is no effect, 100 is complete control) [18]: 0
CO/N=C(/c1cc(C)ccc1C)c1c(O)c(C)nn(C)c1=O [Compound 30] | 50 | 50 | 60 | 30 | 80 | 70 | 70 | 40 | 40 | 20 | 80 | 10 | 0 | 0 | 40 | 0 | 80 | 60 | 30 | 10 | Ryegrass, Italian plant response rating (0 to 100 scale) ([1]; 125 g ai/ha Preemergence): 20; Barnyardgrass plant response rating (0 to 100 scale) ([2]; 125 g ai/ha Preemergence): 0; Foxtail, Green plant response rating (0 to 100 scale) ([3]; 125 g ai/ha Preemergence): 0; Kochia plant response rating (0 to 100 scale) (kochia (Kochia scoparia) [4]; 125 g ai/ha Preemergence): 0; Pigweed plant response rating (0 to 100 scale) ([5]; 125 g ai/ha Preemergence): 30; Ragweed plant response rating (0 to 100 scale) ([6]; 125 g ai/ha Preemergence): 20; Pigweed plant response rating (0 to 100 scale) [13]: 50; Pigweed plant response rating [13]: 30; Ragweed plant response rating (0 to 100 scale) [14]: 60; Ragweed plant response rating [14]: 40; Wheat plant response rating (0 to 100 scale) [15]: 30; Wheat plant response rating [15]: 10; Plant response rating, Barnyardgrass (0 to 100 scale, 0 is no effect, 100 is complete control) [16]: 0; Plant response rating, Ducksalad (0 to 100 scale, 0 is no effect, 100 is complete control) [17]: 0; Plant response rating, Rice (0 to 100 scale, 0 is no effect, 100 is complete control) (rice (Oryza sativa)): 0; Plant response rating, Sedge, Umbrella (0 to 100 scale, 0 is no effect, 100 is complete control) [18]: 0
CO/N=C(/c1c(O)c(C)nn(C)c1=O)c1cccc2ccccc12 [Compound 31] | 70 | 70 | 90 | 90 | 90 | 80 | 90 | 60 | 90 | 40 | 90 | 80 | 50 | 20 | 80 | 50 | 90 | 90 | 80 | 70 | Ryegrass, Italian plant response rating (0 to 100 scale) ([1]; 125 g ai/ha Preemergence): 40; Barnyardgrass plant response rating (0 to 100 scale) ([2]; 125 g ai/ha Preemergence): 10; Foxtail, Green plant response rating (0 to 100 scale) ([3]; 125 g ai/ha Preemergence): 30; Kochia plant response rating (0 to 100 scale) (kochia (Kochia scoparia) [4]; 125 g ai/ha Preemergence): 10; Pigweed plant response rating (0 to 100 scale) ([5]; 125 g ai/ha Preemergence): 40; Ragweed plant response rating (0 to 100 scale) ([6]; 125 g ai/ha Preemergence): 30; Pigweed plant response rating (0 to 100 scale) [13]: 90; Pigweed plant response rating [13]: 60; Ragweed plant response rating (0 to 100 scale) [14]: 90; Ragweed plant response rating [14]: 70; Wheat plant response rating (0 to 100 scale) [15]: 20; Wheat plant response rating [15]: 0; Plant response rating, Barnyardgrass (0 to 100 scale, 0 is no effect, 100 is complete control) [16]: 25; Plant response rating, Ducksalad (0 to 100 scale, 0 is no effect, 100 is complete control) [17]: 0; Plant response rating, Rice (0 to 100 scale, 0 is no effect, 100 is complete control) (rice (Oryza sativa)): 40; Plant response rating, Sedge, Umbrella (0 to 100 scale, 0 is no effect, 100 is complete control) [18]: 0
CO/N=C(/c1ccccc1Cl)c1c(O)c(C)nn(C)c1=O [Compound 63] | 50 | 0 | 20 | 20 | 80 | 70 | 70 | 30 | 0 | 0 | 80 | 10 | 0 | 0 | 10 | 0 | 80 | 60 | 30 | 10 | Ryegrass, Italian plant response rating [1, 19]: 10; Barnyardgrass plant response rating [2, 19]: 0; Foxtail, Green plant response rating [3, 19]: 0; Kochia plant response rating (kochia (Kochia scoparia) [4]; [19]): 0; Pigweed plant response rating [5, 19]: 0; Ragweed plant response rating [6, 19]: 30; Pigweed plant response rating (0 to 100 scale) [13]: 50; Pigweed plant response rating [13]: 30; Ragweed plant response rating (0 to 100 scale) [14]: 50; Ragweed plant response rating [14]: 30; Wheat plant response rating (0 to 100 scale) [15]: 20; Wheat plant response rating [15]: 0; Plant response rating, Barnyardgrass (0 to 100 scale, 0 is no effect, 100 is complete control) [16]: 0; Plant response rating, Ducksalad (0 to 100 scale, 0 is no effect, 100 is complete control) [17]: 0; Plant response rating, Rice (0 to 100 scale, 0 is no effect, 100 is complete control) (rice (Oryza sativa)): 0; Plant response rating, Sedge, Umbrella (0 to 100 scale, 0 is no effect, 100 is complete control) [18]: 0
